From US10344060B2 (priority 2013, dated 2019)
Where two headings read alike, the source gives them in different places.

Columns and labels:
Assay in all cases: cell-based
hNav1.5 = hNav1.5 (Homo sapiens, UniProt Q14524); settings: IonWorks Quattro, read-out: IC50 (μM) Nav1.5
hNav1.3 = hNav1.3 (Homo sapiens, UniProt Q9NY46); settings: IonWorks Quattro, read-out: IC50 (μM) Nav1.3
hNav1.4 = hNav1.4 (Homo sapiens, UniProt P35499); format: cell-based; settings: for IC50: IonWorks Quattro, read-out: IC50 (μM) Nav1.4; for Nav1.4/Nav1.7: ratio of IonWorks Quattro IC50 values
Sequence of hNav1.4 (P35499 whole entry): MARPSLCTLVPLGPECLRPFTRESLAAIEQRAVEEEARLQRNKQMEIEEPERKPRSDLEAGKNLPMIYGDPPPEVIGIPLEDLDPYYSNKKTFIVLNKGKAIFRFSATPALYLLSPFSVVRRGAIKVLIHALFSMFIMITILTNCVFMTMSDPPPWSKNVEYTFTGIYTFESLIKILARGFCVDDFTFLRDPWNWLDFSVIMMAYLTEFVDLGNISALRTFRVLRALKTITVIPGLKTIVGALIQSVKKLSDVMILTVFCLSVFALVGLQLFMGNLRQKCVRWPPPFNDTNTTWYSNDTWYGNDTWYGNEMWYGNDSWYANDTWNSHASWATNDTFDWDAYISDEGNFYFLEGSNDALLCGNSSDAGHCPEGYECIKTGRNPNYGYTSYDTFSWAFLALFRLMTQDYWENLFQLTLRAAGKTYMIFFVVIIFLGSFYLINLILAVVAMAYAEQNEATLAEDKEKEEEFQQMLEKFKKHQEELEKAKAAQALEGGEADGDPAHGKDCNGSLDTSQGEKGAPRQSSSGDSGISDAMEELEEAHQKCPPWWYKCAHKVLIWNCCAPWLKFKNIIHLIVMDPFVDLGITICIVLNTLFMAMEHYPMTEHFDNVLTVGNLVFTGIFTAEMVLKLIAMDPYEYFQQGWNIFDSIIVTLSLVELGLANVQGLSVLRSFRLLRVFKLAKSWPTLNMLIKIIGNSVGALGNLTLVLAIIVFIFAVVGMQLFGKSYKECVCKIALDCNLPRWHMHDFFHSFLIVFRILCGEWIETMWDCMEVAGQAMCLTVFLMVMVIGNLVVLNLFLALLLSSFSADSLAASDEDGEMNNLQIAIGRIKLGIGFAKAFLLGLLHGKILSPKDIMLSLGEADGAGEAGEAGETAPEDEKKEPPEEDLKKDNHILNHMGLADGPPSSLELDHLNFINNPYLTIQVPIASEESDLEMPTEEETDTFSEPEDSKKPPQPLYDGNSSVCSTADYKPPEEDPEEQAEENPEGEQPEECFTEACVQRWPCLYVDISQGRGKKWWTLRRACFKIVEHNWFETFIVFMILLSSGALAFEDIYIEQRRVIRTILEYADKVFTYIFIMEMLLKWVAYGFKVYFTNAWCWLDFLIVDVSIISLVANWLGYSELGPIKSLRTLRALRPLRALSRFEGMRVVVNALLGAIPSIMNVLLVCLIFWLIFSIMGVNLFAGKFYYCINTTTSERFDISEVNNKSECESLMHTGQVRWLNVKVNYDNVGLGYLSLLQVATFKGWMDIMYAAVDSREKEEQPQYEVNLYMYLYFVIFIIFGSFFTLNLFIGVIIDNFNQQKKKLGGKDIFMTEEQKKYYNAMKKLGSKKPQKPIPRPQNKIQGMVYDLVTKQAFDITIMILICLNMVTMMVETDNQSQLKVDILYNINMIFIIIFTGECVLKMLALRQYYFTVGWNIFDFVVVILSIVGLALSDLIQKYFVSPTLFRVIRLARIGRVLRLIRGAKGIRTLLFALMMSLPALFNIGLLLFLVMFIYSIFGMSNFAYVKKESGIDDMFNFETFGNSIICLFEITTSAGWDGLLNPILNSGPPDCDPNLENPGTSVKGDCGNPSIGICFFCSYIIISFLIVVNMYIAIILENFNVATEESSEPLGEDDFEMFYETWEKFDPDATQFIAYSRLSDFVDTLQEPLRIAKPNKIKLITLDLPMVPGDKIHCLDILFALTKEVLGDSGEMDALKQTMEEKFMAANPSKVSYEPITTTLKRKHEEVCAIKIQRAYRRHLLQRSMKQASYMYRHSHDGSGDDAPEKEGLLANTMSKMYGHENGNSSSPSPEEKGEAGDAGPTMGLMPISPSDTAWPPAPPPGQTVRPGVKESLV

hNav1.7 = hNav1.7 (Homo sapiens, UniProt Q15858); settings: read-out: IC50 (μM) Nav1.7

Sequence of hNav1.5 (Q14524 whole entry): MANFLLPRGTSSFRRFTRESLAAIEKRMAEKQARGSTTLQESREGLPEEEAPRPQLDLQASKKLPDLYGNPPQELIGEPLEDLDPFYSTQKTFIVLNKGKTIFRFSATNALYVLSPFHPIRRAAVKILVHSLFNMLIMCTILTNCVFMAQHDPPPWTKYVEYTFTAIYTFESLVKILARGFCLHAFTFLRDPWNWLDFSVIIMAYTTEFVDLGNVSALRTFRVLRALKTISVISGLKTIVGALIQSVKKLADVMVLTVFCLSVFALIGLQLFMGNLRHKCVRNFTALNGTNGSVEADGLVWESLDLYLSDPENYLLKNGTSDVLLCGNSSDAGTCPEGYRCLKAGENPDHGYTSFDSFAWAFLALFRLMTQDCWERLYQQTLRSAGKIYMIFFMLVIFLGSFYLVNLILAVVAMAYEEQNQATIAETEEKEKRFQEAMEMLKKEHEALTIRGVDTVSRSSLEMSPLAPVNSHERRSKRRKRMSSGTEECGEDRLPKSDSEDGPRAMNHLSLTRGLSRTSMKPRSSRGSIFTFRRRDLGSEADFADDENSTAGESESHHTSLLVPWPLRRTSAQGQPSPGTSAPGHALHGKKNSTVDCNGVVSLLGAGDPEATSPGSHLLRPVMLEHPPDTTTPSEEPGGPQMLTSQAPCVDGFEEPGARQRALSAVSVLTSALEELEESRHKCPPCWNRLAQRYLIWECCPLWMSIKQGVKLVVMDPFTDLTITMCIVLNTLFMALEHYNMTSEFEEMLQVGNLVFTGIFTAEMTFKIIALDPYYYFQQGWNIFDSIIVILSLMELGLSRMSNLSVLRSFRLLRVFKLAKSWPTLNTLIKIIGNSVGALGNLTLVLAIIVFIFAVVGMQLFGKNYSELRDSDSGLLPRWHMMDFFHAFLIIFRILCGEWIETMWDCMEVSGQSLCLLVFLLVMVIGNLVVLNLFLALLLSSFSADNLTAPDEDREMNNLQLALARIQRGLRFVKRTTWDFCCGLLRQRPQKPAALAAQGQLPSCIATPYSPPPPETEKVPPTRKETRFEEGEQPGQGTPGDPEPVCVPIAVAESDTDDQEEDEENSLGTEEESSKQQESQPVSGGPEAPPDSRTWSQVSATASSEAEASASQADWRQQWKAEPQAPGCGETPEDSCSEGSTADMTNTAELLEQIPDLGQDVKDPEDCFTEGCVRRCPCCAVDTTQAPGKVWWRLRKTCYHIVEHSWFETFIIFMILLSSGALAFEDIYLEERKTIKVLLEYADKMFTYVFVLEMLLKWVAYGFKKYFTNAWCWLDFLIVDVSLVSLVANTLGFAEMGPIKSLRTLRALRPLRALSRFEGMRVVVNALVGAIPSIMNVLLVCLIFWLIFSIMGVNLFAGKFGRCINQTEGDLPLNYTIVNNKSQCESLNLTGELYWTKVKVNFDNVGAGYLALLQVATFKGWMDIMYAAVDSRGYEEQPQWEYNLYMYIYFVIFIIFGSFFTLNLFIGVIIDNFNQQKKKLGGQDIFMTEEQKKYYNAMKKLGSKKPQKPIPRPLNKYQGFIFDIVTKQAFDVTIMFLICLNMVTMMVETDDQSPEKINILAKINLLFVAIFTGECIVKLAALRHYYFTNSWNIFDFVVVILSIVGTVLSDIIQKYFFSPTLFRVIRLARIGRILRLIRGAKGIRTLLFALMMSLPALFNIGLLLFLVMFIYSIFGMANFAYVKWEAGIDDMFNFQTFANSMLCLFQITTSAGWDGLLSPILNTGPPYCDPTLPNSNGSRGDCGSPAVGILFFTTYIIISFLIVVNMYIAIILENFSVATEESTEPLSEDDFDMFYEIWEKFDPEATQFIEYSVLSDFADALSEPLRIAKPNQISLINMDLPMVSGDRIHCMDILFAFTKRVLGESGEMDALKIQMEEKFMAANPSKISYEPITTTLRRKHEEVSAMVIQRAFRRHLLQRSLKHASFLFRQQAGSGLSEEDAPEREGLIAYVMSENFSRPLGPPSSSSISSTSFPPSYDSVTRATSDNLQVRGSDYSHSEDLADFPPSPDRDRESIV

In the case of `CC[C@H](C)[C@H](NC(=O)[C@@H](NC(=O)[C@H](CCCCN)NC(=O)[C@H](CCCNC(=N)N)NC(=O)[C@@H]1CSSC[C@@H]2NC(=O)[C@H](C)NC(=O)[C@H](CCCNC(=N)N)NC(=O)[C@H](CCCCN)NC(=O)[C@H](CO)NC(=O)[C@H](CC(=O)O)NC(=O)[C@@H]3CSSC[C@H](NC(=O)[C@H](CCCNC(=N)N)NC(=O)[C@H](CC(C)C)NC(=O)CNC(=O)[C@H](CCC(=O)O)NC(=O)[C@H](CSSC[C@H](NC(=O)[C@@H](N)Cc4ccc(O)cc4)C(=O)N[C@@H](CCC(N)=O)C(=O)N[C@@H](CCCCN)C(=O)N[C@@H](Cc4c[nH]c5ccccc45)C(=O)N[C@@H](CCSC)C(=O)N[C@@H](Cc4c[nH]c5ccccc45)C(=O)N[C@@H](C)C(=O)N3)NC2=O)C(=O)N[C@@H](CCCCN)C(=O)N[C@@H](CC(C)C)C(=O)N[C@@H](Cc2c[nH]c3ccccc23)C(=O)N1)[C@@H](C)CC)C(N)=O` [compound 9], the IC50 (hNav1.5; Table 6) is reported as > 5 µM, the IC50 (hNav1.3; Table 6) is reported as 0.21 µM and the IC50 (hNav1.4; Table 6) is reported as 0.25 µM. For the same compound, the Nav1.4/Nav1.7 (hNav1.4; Table 6) was 10 and the IC50 (hNav1.7) was 0.025 µM.

In the case of `CC[C@H](C)[C@H](NC(=O)[C@@H](NC(=O)[C@H](CCCCN)NC(=O)[C@H](CCCNC(=N)N)NC(=O)[C@@H]1CSSC[C@@H]2NC(=O)[C@H](C)NC(=O)[C@H](CCCCN)NC(=O)[C@H](CCCCN)NC(=O)[C@H](CO)NC(=O)[C@H](CC(=O)O)NC(=O)[C@@H]3CSSC[C@H](NC(=O)[C@H](CCCNC(=N)N)NC(=O)[C@H](CC(C)C)NC(=O)CNC(=O)[C@H](CCC(=O)O)NC(=O)[C@H](CSSC[C@H](NC(=O)[C@@H](N)Cc4ccc(O)cc4)C(=O)N[C@@H](CCC(N)=O)C(=O)N[C@@H](CCCCN)C(=O)N[C@@H](Cc4c[nH]c5ccccc45)C(=O)N[C@@H](CCSC)C(=O)N[C@@H](Cc4c[nH]c5ccccc45)C(=O)N[C@@H]([C@@H](C)O)C(=O)N3)NC2=O)C(=O)N[C@@H](CCCCN)C(=O)N[C@@H](CC(C)C)C(=O)N[C@@H](Cc2c[nH]c3ccccc23)C(=O)N1)[C@@H](C)CC)C(N)=O` [compound 79], the IC50 (hNav1.5; Table 6) is reported as > 5 µM, the IC50 (hNav1.3; Table 6) is reported as 0.12 µM and the IC50 (hNav1.4; Table 6) is reported as 0.47 µM. For the same compound, the Nav1.4/Nav1.7 (hNav1.4; Table 6) was 7 and the IC50 (hNav1.7) was 0.064 µM.

`CC[C@H](C)[C@H](NC(=O)[C@@H](NC(=O)[C@H](CCCCN)NC(=O)[C@H](CCCNC(=N)N)NC(=O)[C@@H]1CSSC[C@@H]2NC(=O)[C@H](C)NC(=O)[C@H](CCCNC(=N)N)NC(=O)[C@H](CCCCN)NC(=O)[C@H](CO)NC(=O)[C@H](CC(=O)O)NC(=O)[C@@H]3CSSC[C@H](NC(=O)[C@H](CCCNC(=N)N)NC(=O)[C@H](CC(C)C)NC(=O)CNC(=O)[C@H](CCC(=O)O)NC(=O)[C@H](CSSC[C@H](NC(=O)[C@@H](N)Cc4ccc(O)cc4)C(=O)N[C@@H](CCC(N)=O)C(=O)N[C@@H](CCCCN)C(=O)N[C@@H](Cc4c[nH]c5ccccc45)C(=O)N[C@@H](CCSC)C(=O)N[C@@H](Cc4c[nH]c5ccccc45)C(=O)N[C@@H](CCCNC(=N)N)C(=O)N3)NC2=O)C(=O)N[C@@H](CCCCN)C(=O)N[C@@H](CC(C)C)C(=O)N[C@@H](Cc2c[nH]c3ccccc23)C(=O)N1)[C@@H](C)CC)C(N)=O` [compound 96] showed an IC50 (hNav1.5; Table 6) of 1.7 µM, an IC50 (hNav1.3; Table 6) of 0.05 µM and an IC50 (hNav1.4; Table 6) of 0.14 µM. It also gave a Nav1.4/Nav1.7 (hNav1.4; Table 6) of 7 and an IC50 (hNav1.7) of 0.018 µM.

With `CC[C@H](C)[C@H](NC(=O)[C@@H](NC(=O)[C@H](CCCCN)NC(=O)[C@H](CCCNC(=N)N)NC(=O)[C@@H]1CSSC[C@@H]2NC(=O)[C@H](C)NC(=O)[C@H](CCCNC(=N)N)NC(=O)[C@H](CCCCN)NC(=O)[C@H](CO)NC(=O)[C@H](CC(=O)O)NC(=O)[C@@H]3CSSC[C@H](NC(=O)[C@H](CCCNC(=N)N)NC(=O)[C@H](CC(C)C)NC(=O)CNC(=O)[C@H](CCC(=O)O)NC(=O)[C@H](CSSC[C@H](NC(=O)[C@@H](N)Cc4ccc(O)cc4)C(=O)N[C@@H](CCC(N)=O)C(=O)N[C@@H](CCCCN)C(=O)N[C@@H](Cc4c[nH]c5ccccc45)C(=O)N[C@@H](CCSC)C(=O)N[C@@H](C)C(=O)N[C@@H]([C@@H](C)O)C(=O)N3)NC2=O)C(=O)N[C@@H](CCCCN)C(=O)N[C@@H](CC(C)C)C(=O)N[C@@H](Cc2c[nH]c3ccccc23)C(=O)N1)[C@@H](C)CC)C(N)=O` [compound 8] the IC50 (hNav1.5; Table 6) was > 5 µM, the IC50 (hNav1.3; Table 6) was 0.94 µM and the IC50 (hNav1.4; Table 6) was 0.69 µM. It also gave a Nav1.4/Nav1.7 (hNav1.4; Table 6) of 5 and an IC50 (hNav1.7) of 0.15 µM.

`CC[C@H](C)[C@H](NC(=O)[C@H](CCCNC(=N)N)NC(=O)[C@H](CCCCN)NC(=O)[C@H](CCCNC(=N)N)NC(=O)[C@@H]1CSSC[C@@H]2NC(=O)[C@H](C)NC(=O)[C@H](CCCNC(=N)N)NC(=O)[C@H](CCCCN)NC(=O)[C@H](CO)NC(=O)[C@H](CC(=O)O)NC(=O)[C@@H]3CSSC[C@H](NC(=O)[C@H](CCCNC(=N)N)NC(=O)[C@H](CC(C)C)NC(=O)CNC(=O)[C@H](CCC(=O)O)NC(=O)[C@H](CSSC[C@H](NC(=O)[C@@H](N)Cc4ccc(O)cc4)C(=O)N[C@@H](CCC(N)=O)C(=O)N[C@@H](CCCCN)C(=O)N[C@@H](Cc4c[nH]c5ccccc45)C(=O)N[C@@H](CCSC)C(=O)N[C@@H](Cc4c[nH]c5ccccc45)C(=O)N[C@@H]([C@@H](C)O)C(=O)N3)NC2=O)C(=O)N[C@@H](CCCCN)C(=O)N[C@@H](CC(C)C)C(=O)N[C@@H](Cc2c[nH]c3ccccc23)C(=O)N1)C(N)=O` [compound 108] gave an IC50 (hNav1.5; Table 6) of 1.8 µM, an IC50 (hNav1.3; Table 6) of 0.06 µM and an IC50 (hNav1.4; Table 6) of 0.14 µM.

In the case of `CC[C@H](C)[C@H](NC(=O)[C@H](CCCCN)NC(=O)[C@H](CCCNC(=N)N)NC(=O)[C@@H]1CSSC[C@@H]2NC(=O)[C@H](C)NC(=O)[C@H](CCCNC(=N)N)NC(=O)[C@H](CCCCN)NC(=O)[C@H](CO)NC(=O)[C@H](CC(=O)O)NC(=O)[C@@H]3CSSC[C@H](NC(=O)[C@H](CCC(=O)O)NC(=O)[C@H](CC(C)C)NC(=O)CNC(=O)[C@H](CCC(=O)O)NC(=O)[C@H](CSSC[C@H](NC(=O)[C@@H](N)Cc4ccc(O)cc4)C(=O)N[C@@H](CCC(N)=O)C(=O)N[C@@H](CCCCN)C(=O)N[C@@H](Cc4c[nH]c5ccccc45)C(=O)N[C@@H](CCSC)C(=O)N[C@@H](Cc4c[nH]c5ccccc45)C(=O)N[C@@H]([C@@H](C)O)C(=O)N3)NC2=O)C(=O)N[C@@H](CCCCN)C(=O)N[C@@H](CC(C)C)C(=O)N[C@@H](Cc2c[nH]c3ccccc23)C(=O)N1)C(=O)N[C@@H](Cc1cn(CCCOCCOCCOCCOCCOCCOCCOCCOCCOCCOCCN)nn1)C(N)=O` [compound 188], the IC50 (hNav1.5; Table 9) is reported as 20.1 µM, the IC50 (hNav1.3; Table 9) is reported as > 5 µM and the IC50 (hNav1.4; Table 9) is reported as > 5 µM. It also gave a Nav1.4/Nav1.7 (hNav1.4; Table 9) of 1.

With `CC[C@H](C)[C@H](NC(=O)[C@@H](NC(=O)[C@H](CCCCN)NC(=O)[C@H](CCCNC(=N)N)NC(=O)[C@@H]1CSSC[C@@H]2NC(=O)[C@H](C)NC(=O)[C@H](CCCNC(=N)N)NC(=O)[C@H](CCCCN)NC(=O)[C@H](CO)NC(=O)[C@H](CC(=O)O)NC(=O)[C@@H]3CSSC[C@H](NC(=O)[C@H](CCC(=O)O)NC(=O)[C@H](CC(C)C)NC(=O)CNC(=O)[C@H](CCC(=O)O)NC(=O)[C@H](CSSC[C@H](NC(=O)[C@@H](N)Cc4ccc(O)cc4)C(=O)N[C@@H](CCC(N)=O)C(=O)N[C@@H](CCCCN)C(=O)N[C@@H](Cc4c[nH]c5ccccc45)C(=O)N[C@@H](CCSC)C(=O)N[C@@H](Cc4c[nH]c5ccccc45)C(=O)N[C@@H](Cc4cn(CCCOCCOCCOCCOCCOCCOCCOCCOCCOCCOCCN)nn4)C(=O)N3)NC2=O)C(=O)N[C@@H](CCCCN)C(=O)N[C@@H](CC(C)C)C(=O)N[C@@H](Cc2c[nH]c3ccccc23)C(=O)N1)[C@@H](C)CC)C(N)=O` [compound 171] the IC50 (hNav1.5; Table 9) was 18.7 µM, the IC50 (hNav1.3; Table 9) was > 5 µM and the IC50 (hNav1.4; Table 9) was > 5 µM. The Nav1.4/Nav1.7 (hNav1.4; Table 9) was 1.
